Laboratory results: patent US9249152B2, “Cyano containing azabenzofuran compounds for the treatment of hepatitis C” (BRISTOL-MYERS SQUIBB COMPANY, priority 2014, dated 2016)
Read-outs that look alike come from different tables or passages of the source.

Tested on: genotype 1b (Con-1) HCV replicon
Test: HCV replicon luciferase assay, genotype 1b (Con-1)
Type: cell-based
Details: genotype 1b HCV replicon, Huh-7 cells, Renilla luciferase, 3 days
Protocol: The cell lines used to evaluate compounds consist of a human hepatocyte derived cell line (Huh-7) that constitutively expresses a genotype 1b (Con-1) HCV replicon or a genotype 1b (Con-1) HCV replicon with an asparagine replacing the cysteine at amino acid 316, or a genotype 2a (JFH-1) replicon, containing a Renilla luciferase reporter gene. These cells were maintained in Dulbecco's modified Eagle medium (DMEM) containing 10% FBS, 100 U/mL penicillin/streptomycin and 1.0 mg/mL G418.
To evaluate compound efficacy, titrated compounds were transferred to sterile 384-well tissue culture treated plates, and the plates were seeded with HCV replicon cells (50 μL at a density of 2.4×10^3 cells/well) in DMEM containing 4% FBS (final DMSO concentration at 0.5%). After 3 days incubation at 37° C., cells were analyzed for Renilla Luciferase activity using the EnduRen substrate (Promega cat #E6485) according to the manufacturer's directions. Briefly, the EnduRen substrate was diluted in DMEM and then added to the plates to a final concentration of 7.5 μM. The plates were incubated for at least 1 h at 37° C. then read on a Viewlux Imager (PerkinElmer) using a luminescence program. The 50% effective concentration (EC50) was calculated using the four-parameter logistic formula noted above.

[1] = Hepatitis C virus, Huh-7, 72 h, read-out: EC50 1b (class)
[2] = Hepatitis C virus, Huh-7, 72 h, read-out: EC50 (uM) 1b

Structure (SMILES) | EC50 [1] [µM] | EC50 [2] [µM] | EC50 (read-out: EC50 1b (class)) [µM]
CNC(=O)c1c(-c2ccc(F)cc2)oc2nc(CCC(F)(F)F)c(-c3cc(F)cc(C(=O)NC(C)(C#N)C4CC4)c3)cc12 (stereo not shown) [Compound 14002] | < 0.1 |  | 
CNC(=O)c1c(-c2ccc(F)cc2)oc2nc(CCC(F)(F)F)c(-c3cc(C(=O)NC(C)(C#N)C4CC4)ccc3F)cc12 (stereo not shown) [Compound 15001] | < 0.1 |  | 
CNC(=O)c1c(-c2ccc(F)cc2)oc2nc(CCC(F)(F)F)c(-c3cc(C(=O)NC(C)(C)C#N)ccc3F)cc12 [Compound 15002] | < 0.1 | 0.0042 | 
CNC(=O)c1c(-c2ccc(F)cc2)oc2nc(CCC(F)(F)F)c(-c3cc(Cl)c(Cl)c(C(=O)NC(C)(C)C#N)c3)cc12 [Compound 16001] | < 0.1 |  | 
CNC(=O)c1c(-c2ccc(F)cc2)oc2nc(CCC(F)(F)F)c(-c3cc(F)c(F)c(C(=O)NC(C)(C#N)C4CC4)c3)cc12 (stereo not shown) [Compound 17001] | < 0.1 | 0.0018 | 
[2H]C([2H])([2H])Oc1ncc(-c2cc3c(C(=O)NC)c(-c4ccc(F)cc4)oc3nc2CCC(F)(F)F)cc1C(=O)NC(C)(C#N)C1CC1 (stereo not shown) [Compound 18001] | < 0.1 | 0.0037 | 
CNC(=O)c1c(-c2ccc(F)cc2)oc2nc(NCC(F)(F)F)c(-c3cccc(C(=O)NC(C)(C)C#N)c3)cc12 [Compound 20001] | < 0.1 |  | 
CNC(=O)c1c(-c2ccc(F)cc2)oc2nc(NCC(F)(F)F)c(-c3cccc(C(=O)NC(C)C#N)c3)cc12 (stereo not shown) [Compound 20002] | < 0.1 |  | 
CNC(=O)c1c(-c2ccc(F)cc2)oc2nc(NCC(F)(F)F)c(-c3cccc(C(=O)NC(C)C#N)c3)cc12 (stereo not shown) [Compound 20003] |  |  | < 0.1
CNC(=O)c1c(-c2ccc(F)cc2)oc2nc(NCC(F)(F)F)c(-c3cccc(C(=O)NC(C)C#N)c3)cc12 (stereo not shown) [Compound 20004] |  |  | < 0.1
CNC(=O)c1c(-c2ccc(F)cc2)oc2nc(NCC(F)(F)F)c(-c3cccc(C(=O)NC(C)(C#N)C4CC4)c3)cc12 (stereo not shown) [Compound 20006] | < 0.1 | 0.0031 | 
CNC(=O)c1c(-c2ccc(F)cc2)oc2nc(NCC(F)(F)F)c(-c3cccc(C(=O)NC(C)(C#N)C4CC4)c3)cc12 (stereo not shown) [Compound 20007] |  |  | < 0.1
CNC(=O)c1c(-c2ccc(F)cc2)oc2nc(NCC(F)(F)F)c(-c3cccc(C(=O)NC(C)(C#N)C4CC4)c3)cc12 (stereo not shown) [Compound 20008] |  |  | < 0.1
CNC(=O)c1c(-c2ccc(F)cc2)oc2nc(NCC(F)(F)F)c(-c3ccc(OC)c(C(=O)NC(C)(C)C#N)c3)cc12 [Compound 21001] | < 0.1 |  | 
CNC(=O)c1c(-c2ccc(F)cc2)oc2nc(NCC(F)(F)F)c(-c3ccc(F)c(C(=O)NC(C)C#N)c3)cc12 (stereo not shown) [Compound 22001] | < 0.1 | 0.0055 | 
CNC(=O)c1c(-c2ccc(F)cc2)oc2nc(NCC(F)(F)F)c(-c3ccc(F)c(C(=O)NC(C)C#N)c3)cc12 (stereo not shown) [Compound 22002] |  |  | < 0.1
CNC(=O)c1c(-c2ccc(F)cc2)oc2nc(NCC(F)(F)F)c(-c3ccc(F)c(C(=O)NC(C)C#N)c3)cc12 (stereo not shown) [Compound 22003] |  |  | < 0.1
CNC(=O)c1c(-c2ccc(F)cc2)oc2nc(NCC(F)(F)F)c(-c3ccc(F)c(C(=O)NC(C)(C#N)C4CC4)c3)cc12 (stereo not shown) [Compound 22004] | < 0.1 | 0.004 | 
CNC(=O)c1c(-c2ccc(F)cc2)oc2nc(NCC(F)(F)F)c(-c3ccc(F)c(C(=O)NC(C)(C#N)C4CC4)c3)cc12 (stereo not shown) [Compound 22005] |  |  | < 0.1
CNC(=O)c1c(-c2ccc(F)cc2)oc2nc(NCC(F)(F)F)c(-c3ccc(F)c(C(=O)NC(C)(C#N)C4CC4)c3)cc12 (stereo not shown) [Compound 22006] |  |  | < 0.1
CNC(=O)c1c(-c2ccc(F)cc2)oc2nc(NCC(F)(F)F)c(-c3cc(F)cc(C(=O)NC(C)(C#N)C4CC4)c3)cc12 (stereo not shown) [Compound 23001] | < 0.1 |  | 
CNC(=O)c1c(-c2ccc(F)cc2)oc2nc(NCC(F)(F)F)c(-c3cc(F)cc(C(=O)NC(C)(C)C#N)c3)cc12 [Compound 23002] | < 0.1 | 0.0072 | 
CNC(=O)c1c(-c2ccc(F)cc2)oc2nc(NCC(F)(F)F)c(-c3cc(Cl)c(NCC(F)(F)F)c(C(=O)NC(C)(C)C#N)c3)cc12 [Compound 24001] | < 0.1 | 0.0539 | 
CNC(=O)c1c(-c2ccc(F)cc2)oc2nc(NCC(F)(F)C(F)(F)F)c(-c3cccc(C(=O)NC(C)(C)C#N)c3)cc12 [Compound 30001] | < 0.1 |  | 
CNC(=O)c1c(-c2ccc(F)cc2)oc2nc(NCC(F)(F)C(F)(F)F)c(-c3cccc(C(=O)NC(C)(C#N)C(C)C)c3)cc12 (stereo not shown) [Compound 30002] | < 0.1 | 0.0394 | 
CNC(=O)c1c(-c2ccc(F)cc2)oc2nc(NCC(F)(F)C(F)(F)F)c(-c3cccc(C(=O)NC4(C#N)CCCC4)c3)cc12 [Compound 30003] | < 0.1 |  | 

Structure (SMILES) | EC50 [1] [µM] | EC50 [2] [µM] | EC50 (read-out: EC50 1b (class)) [µM]
CNC(=O)c1c(-c2ccc(F)cc2)oc2nc(NCC(F)(F)C(F)(F)F)c(-c3ccc(OC)c(C(=O)NC(C)(C#N)C(C)C)c3)cc12 (stereo not shown) [Compound 31001] | < 0.1 |  | 
CNC(=O)c1c(-c2ccc(F)cc2)oc2nc(NCC(F)(F)C(F)(F)F)c(-c3ccc(OC)c(C(=O)NC(C)(C#N)C4CC4)c3)cc12 (stereo not shown) [Compound 31002] | < 0.1 | 0.0061 | 
CNC(=O)c1c(-c2ccc(F)cc2)oc2nc(NCCO)c(-c3cccc(C(=O)NC(C)(C)C#N)c3)cc12 [Compound 40001] | < 0.1 |  | 
CNC(=O)c1c(-c2ccc(F)cc2)oc2nc(CCC(F)(F)F)c(-c3ccc(F)c(C(=O)NC4(C#N)CC4)c3)cc12 [Compound K1001] | < 0.1 | 0.0061 | 
CNC(=O)c1c(-c2ccc(F)cc2)oc2nc(CCC(F)(F)F)c(-c3ccc(F)c(C(=O)NC4(C#N)CCC4)c3)cc12 [Compound K1002] | < 0.1 |  | 
CNC(=O)c1c(-c2ccc(F)cc2)oc2nc(CCC(F)(F)F)c(-c3ccc(F)c(C(=O)NC(C)(C)C#N)c3)cc12 [Compound K1003] | < 0.1 |  | 
CNC(=O)c1c(-c2ccc(F)cc2)oc2nc(NCC(F)(F)F)c(-c3ccc(F)c(C(=O)NC(C)(C)C#N)c3)cc12 [Compound K2001] | < 0.1 |  | 
CNC(=O)c1c(-c2ccc(F)cc2)oc2nc(NCC(F)(F)F)c(-c3ccc(F)c(C(=O)NC4(C#N)CC4)c3)cc12 [Compound K2002] | < 0.1 | 0.0034 | 
CNC(=O)c1c(-c2ccc(F)cc2)oc2nc(NCC(F)(F)F)c(-c3ccc(F)c(C(=O)NC4(C#N)CCC4)c3)cc12 [Compound K2003] | < 0.1 |  | 
CNC(=O)c1c(-c2ccc(F)cc2)oc2nc(NCC(F)(F)F)c(-c3ccc(F)c(C(=O)NC4(C#N)CCCC4)c3)cc12 [Compound K2004] | < 0.1 |  | 
CNC(=O)c1c(-c2ccc(F)cc2)oc2nc(NCC(F)(F)F)c(-c3ccc(F)c(C(=O)NC(C)(C#N)C(C)C)c3)cc12 (stereo not shown) [Compound K2005] | < 0.1 |  | 
CNC(=O)c1c(-c2ccc(F)cc2)oc2nc(NCC(F)(F)F)c(-c3cccc(C(=O)NC4(C#N)CCCC4)c3)cc12 [Compound K4001] | < 0.1 |  | 
CNC(=O)c1c(-c2ccc(F)cc2)oc2nc(NCC(F)(F)F)c(-c3cccc(C(=O)NC4(C#N)CCC4)c3)cc12 [Compound K4002] | < 0.1 |  | 
CNC(=O)c1c(-c2ccc(F)cc2)oc2nc(NCC(F)(F)F)c(-c3cccc(C(=O)NC4(C#N)CC4)c3)cc12 [Compound K4003] | < 0.1 | 0.0043 | 
CNC(=O)c1c(-c2ccc(F)cc2)oc2nc(NCC(F)(F)F)c(-c3cccc(C(=O)NC(C)(C#N)C(C)C)c3)cc12 (stereo not shown) [Compound K4004] | < 0.1 | 0.004 | 
CNC(=O)c1c(-c2ccc(F)cc2)oc2nc(NCC(F)(F)F)c(-c3ccc(OC)c(C(=O)NC4(C#N)CCC4)c3)cc12 [Compound K5001] | < 0.1 |  | 
CNC(=O)c1c(-c2ccc(F)cc2)oc2nc(NCC(F)(F)F)c(-c3ccc(OC)c(C(=O)NC4(C#N)CC4)c3)cc12 [Compound K5002] | < 0.1 |  | 
CNC(=O)c1c(-c2ccc(F)cc2)oc2nc(NCC(F)(F)F)c(-c3ccc(OC)c(C(=O)NC4(C#N)CCCC4)c3)cc12 [Compound K5003] | < 0.1 |  | 
CNC(=O)c1c(-c2ccc(F)cc2)oc2nc(NCC(F)(F)F)c(-c3ccc(OC)c(C(=O)NC(C)(C#N)C(C)C)c3)cc12 (stereo not shown) [Compound K5004] | < 0.1 | 0.0028 | 
CNC(=O)c1c(-c2ccc(F)cc2)oc2nc(CCC(F)(F)F)c(-c3ccc(OC)c(C(=O)NC4(C#N)CC4)c3)cc12 [Compound K6001] | < 0.1 |  | 
CNC(=O)c1c(-c2ccc(F)cc2)oc2nc(CCC(F)(F)F)c(-c3cnc(OC)c(C(=O)NC(C)(C)C#N)c3)cc12 [Compound K7001] | < 0.1 |  | 
CNC(=O)c1c(-c2ccc(F)cc2)oc2nc(CCC(F)(F)F)c(-c3cnc(OC)c(C(=O)NC4(C#N)CC4)c3)cc12 [Compound K7003] | < 0.1 |  | 
CNC(=O)c1c(-c2ccc(F)cc2)oc2nc(CCC(F)(F)F)c(-c3cnc(OC)c(C(=O)NC4(C#N)CCCC4)c3)cc12 [Compound K7004] | < 0.1 |  | 
CNC(=O)c1c(-c2ccc(F)cc2)oc2nc(CCC(F)(F)F)c(-c3cnc(OC)c(C(=O)NC(C)(C#N)C(C)C)c3)cc12 (stereo not shown) [Compound K7005] | < 0.1 | 0.0028 | 
CNC(=O)c1c(-c2ccc(F)cc2)oc2nc(NCC(F)(F)F)c(-c3cnc(OC)c(C(=O)NC(C)(C)C#N)c3)cc12 [Compound K8001] | < 0.1 |  | 
